Data set [1] is described as follows: Complexation: percent samarium metal as a complex (Sephadex column). It counts as physicochemical. On the procedure: Metal ligand complexes were prepared by various methods. The methods included mixing of the metal and ligand in aqueous solution and adjusting the pH to the desired value. Complexation was done in solutions containing salts and/or buffers as well as water.
For example, a solution of the ligand is prepared by dissolving the ligand in deionized water (about pH=2). A ligand/metal complex was then prepared by combining the ligand solution with aqueous SmCl3.H2 O (3×^-4 M in 0.01N HCl) containing tracer ^153 SmCl3. After thorough mixing, the percent metal as a complex was determined by passing a sample of the complex solution through a Sephadex™ column, eluting with 4:1 saline (0.85% NaCl/NH4 OH), and collecting 2×3 mL fractions. The amount of radioactivity in the combined elutions was then compared with that left on the resin. Under these conditions, complex was removed with the eluent and non-complexed metal is retained on the resin. By this method complexation was determined to usually be about 95% or greater.
Using the above procedure, the complexes of samarium with […]

Data set [2] can be described thus: Biolocalization of complexes having an overall charge of +1 (bone uptake). It counts as in vivo. The note with it: complex having an overall charge of +1.
For data set [3] the following is noted: in vivo; cited from earlier work.
The conditions of data set [4]: breakdown of the blood/brain barrier allows perfusion; cited from earlier work.
The conditions of data set [5]: Prohance versus Magnevist; cited from earlier work.
Data set [6] is described as follows: Biodistribution of 153Sm complexes in rats (% injected dose per organ, NaI scintillation counting after tail vein injection). It counts as in vivo, Sprague Dawley rats. The settings on record: 2 hours post injection; for Biodistribution: Brain / Biodistribution: Heart / Biodistribution: Kidney / Biodistribution: Large Intestine / Biodistribution: Liver / Biodistribution: Lung / Biodistribution: Small Intestine / Biodistribution: Spleen / Biodistribution: Stomach / Biodistribution: Blood / Biodistribution: Bone / Biodistribution: Muscle: i.v. tail vein; for Biodistribution: Blood: blood assumed 6.5% of body weight; for Biodistribution: Bone: femur x 25; for Biodistribution: Muscle: muscle assumed 43% of body weight; for Ratio Bone/Blood / Ratio Bone/Liver / Ratio Bone/Muscle / Ratio Bone/Spleen: ratio of average % injected dose. How it is done: A stock ^159 GdCl3 (or ^153 SMCl3) solution was prepared by adding 2 μL of 3×10^-4 M ^159 GdCl3 in 0.1N HCl to 2 mL of a 3×10^-4 M GdCl3 carrier solution. Appropriate ligand solutions were then prepared in deionized water. The 1:1 ligand/metal complexes were then prepared by combining the ligands (dissolved in 100-500 μL of deionized water) with 2 mL of the stock ^159 GdCl3 solution, followed by through mixing to give an acidic solution (pH=2). The pH of the solution was then raised to 7.0 using 0.1N NaOH. The percent metal as a complex was then determined by passing a sample of the complex solution through a Sephadex™ G-50 column, eluting with 4:1 saline ([…]) and collecting 2×3 mL fractions. The amount of radioactivity in the combined elutions was then compared with that left on the resin (non-complexed metal is retained on the resin). The pH stability profile was generated by adjusting the pH of an aliquot of the complex solution using 1M NaOH or 1M HCl and determining the percent of the metal existing as a complex using the ion exchange method described above. The Sm results are known by expermintal comparison to be identical for complexation and biodistribution of the ligands of this invention.
Sprague Dawley rats were allowed to acclimate for five days then injected with 100 μL of the complex solution via a tail vein. The rats weighed between 150 and 250 g at the time of injection. […] The amount of radioactivity in each tissue was determined by counting in a NaI scintillation counter coupled to a multichannel analyzer. The counts were compared to the counts in 100 μL standards in order to determine the percentage of the dose in each tissue or organ.
The percent dose in blood was estimated assuming blood to be 6.5% of the total body weight. The percent dose in bone was estimated by multiplying the percent dose in the femur by 25. The percent dose in muscle was estimated assuming muscle to be 43% of the total body weight.
In addition to organ biodistribution, chelates of the compounds of Formula (I) were evaluated for efficiency of bone localization since phosphonates are known for their ability to bind to hydroxyapatite.

On to `O=C(O)CN1Cc2cccc(n2)CN(CC(=O)O)Cc2cccc(n2)C1` [BP2A, N,N'-diacetic acid-2,11-diaza[3.3]-(2,6)pyridinophane], for which the “percent metal as a complex” value in data set [1] (ligand:metal ratio of 4:1) is given as 99%. The “bone uptake of complex” value in data set [2] is “displays bone uptake”.
Take `CCOP(=O)(O)CN1Cc2cccc(n2)CN(CP(=O)(O)OCC)Cc2cccc(n2)C1` [BP2EP, N,N'-bis(methylenephosphonic acid ethyl ester)-2,11-diaza[3.3](2,6)pyridinophane]: the “percent metal as a complex” value in data set [1] (ligand:metal ratio of 4:1) was found to be 98%.
As for `O=P(O)(O)CN1Cc2cccc(n2)CN(CP(=O)(O)O)Cc2cccc(n2)C1` [BP2P, N,N'-bis (methylenephosphonic acid) -2,11-diaza[3.3](2,6)pyridinophane], in data set [1] (ligand:metal ratio of 3:1), the “percent metal as a complex” value is 95%.
Regarding `CNC[C@H](O)[C@@H](O)[C@H](O)[C@H](O)CO.CNC[C@H](O)[C@@H](O)[C@H](O)[C@H](O)CO.O=C([O-])CN(CCN(CC(=O)[O-])CC(=O)O)CCN(CC(=O)[O-])CC(=O)O.[Gd+3]` [Magnevist, complex of gadolinium with diethylenetriaminepentaacetic acid], the distribution and elimination result in data set [3] is “freely distribute in extracellular fluid followed by efficient elimination through the renal system”. For the same compound, the “usefulness in the diagnosis of brain lesions” value in data set [4] is given as “extremely valuable in the diagnosis of brain lesions”.
Take `CC(O)CN1CCN(CC(=O)[O-])CCN(CC(=O)[O-])CCN(CC(=O)[O-])CC1.[Gd+3]` (stereo not drawn) [Prohance, [1,4,7-tris(carboxymethyl)-10-(2-hydroxypropyl)-1,4,7,10-tetraazacyclododecanato]-gadolinium]: the distribution and elimination result in data set [3] is reported as “freely distribute in extracellular fluid followed by efficient elimination through the renal system”. Also, the side effects entry in data set [5] was “fewer side effects than Magnevist”.
As to `O=C(O)CN1Cc2cccc(n2)CN(CC(=O)O)Cc2cccc(n2)CN(CC(=O)O)Cc2cccc(n2)C1` [TP3A, N,N',N"-triacetic acid-2,11,20-diaza[3.3.3](2,6)pyridinophane], in data set [1] (ligand:metal ratio of 3:1), the “percent metal as a complex” value amounted to 98.6%.
Turning to `O=C([O-])CN1Cc2cccc(n2)CN(CC(=O)[O-])Cc2cccc(n2)C1.[153Sm+3]` [^153 Sm-BP2A, ^153 Sm N,N'-diacetic acid-2,11-diaza[3.3](2,6)pyridinophane], in data set [6], the “Biodistribution: Brain” value amounted to 0.01 % INJECTED DOSE, the “Biodistribution: Heart” value worked out at 0.02 % INJECTED DOSE, the “Biodistribution: Kidney” value was 0.95 % INJECTED DOSE and the “Biodistribution: Large Intestine” value is reported as 0.04 % INJECTED DOSE. In addition, in data set [6], the “Biodistribution: Liver” value is reported as 0.68 % INJECTED DOSE, the “Biodistribution: Lung” value is on record as 0.06 % INJECTED DOSE, the “Biodistribution: Small Intestine” value came out at 0.80 % INJECTED DOSE and the “Biodistribution: Spleen” value is 0.01 % INJECTED DOSE. For the same compound, in data set [6], the “Biodistribution: Stomach” value is 0.05 % INJECTED DOSE, the “Biodistribution: Blood” value turned out to be 0.43 % INJECTED DOSE, the “Biodistribution: Bone” value is reported as 27.98 % INJECTED DOSE and the “Biodistribution: Muscle” value worked out at 0.80 % INJECTED DOSE. In addition, in data set [6], the “Ratio Bone/Blood” value stood at 65, the “Ratio Bone/Liver” value was determined as 41, the “Ratio Bone/Muscle” value came to 35 and the “Ratio Bone/Spleen” value is reported as 2,798.
As to `CCOP(=O)([O-])CN1Cc2cccc(n2)CN(CP(=O)([O-])OCC)Cc2cccc(n2)C1.[153Sm+3]` [^153 Sm-BP2EP, ^53 Sm N,N'-bis(methylenephosphonic acid ethyl ester)-2,11-diaza[3.3](2,6)pyridinophane], in data set [6], the “Biodistribution: Brain” value was determined as 0.01 % INJECTED DOSE, the “Biodistribution: Heart” value is 0.04 % INJECTED DOSE, the “Biodistribution: Kidney” value stood at 0.74 % INJECTED DOSE and the “Biodistribution: Large Intestine” value was 0.25 % INJECTED DOSE. For the same compound, in data set [6], the “Biodistribution: Liver” value is listed as 5.97 % INJECTED DOSE, the “Biodistribution: Lung” value was determined as 0.19 % INJECTED DOSE, the “Biodistribution: Small Intestine” value is 0.33 % INJECTED DOSE and the “Biodistribution: Spleen” value came out at 0.32 % INJECTED DOSE. Moreover, in data set [6], the “Biodistribution: Stomach” value came out at 0.36 % INJECTED DOSE, the “Biodistribution: Blood” value is on record as 0.45 % INJECTED DOSE, the “Biodistribution: Bone” value is reported as 39.82 % INJECTED DOSE and the “Biodistribution: Muscle” value amounted to 1.21 % INJECTED DOSE. In addition, in data set [6], the “Ratio Bone/Blood” value came to 88, the “Ratio Bone/Liver” value is 7, the “Ratio Bone/Muscle” value came out at 33 and the “Ratio Bone/Spleen” value stood at 124.
For `O=P([O-])([O-])CN1Cc2cccc(n2)CN(CP(=O)([O-])[O-])Cc2cccc(n2)C1.[153Sm+3]` [^153 Sm-BP2P, ^153 Sm N,N'-bis(methylenephosphonic acid)-2,11-diaza[3.3](2,6)pyridinophane], in data set [6], the “Biodistribution: Brain” value turned out to be 0.01 % INJECTED DOSE, the “Biodistribution: Heart” value is on record as 0.07 % INJECTED DOSE, the “Biodistribution: Kidney” value is recorded as 1.21 % INJECTED DOSE and the “Biodistribution: Large Intestine” value was determined as 0.13 % INJECTED DOSE. In addition, in data set [6], the “Biodistribution: Liver” value came out at 3.71 % INJECTED DOSE, the “Biodistribution: Lung” value was 0.17 % INJECTED DOSE, the “Biodistribution: Small Intestine” value was found to be 0.39 % INJECTED DOSE and the “Biodistribution: Spleen” value amounted to 0.05 % INJECTED DOSE. Besides, in data set [6], the “Biodistribution: Stomach” value came to 0.20 % INJECTED DOSE, the “Biodistribution: Blood” value came out at 0.87 % INJECTED DOSE, the “Biodistribution: Bone” value is 60.08 % INJECTED DOSE and the “Biodistribution: Muscle” value is on record as 1.53 % INJECTED DOSE. For the same compound, in data set [6], the “Ratio Bone/Blood” value worked out at 69, the “Ratio Bone/Liver” value stood at 16, the “Ratio Bone/Muscle” value amounted to 39 and the “Ratio Bone/Spleen” value is 1,201.
`O=C([O-])CN1Cc2cccc(n2)CN(CC(=O)[O-])Cc2cccc(n2)CN(CC(=O)[O-])Cc2cccc(n2)C1.[153Sm+3]` [^153 Sm-TP3A, ^153 Sm N,N',N"-triacetic acid-2,11,20-diaza[3.3.3](2,6)pyridinophane]: in data set [6], the “Biodistribution: Heart” value worked out at 0.016 % INJECTED DOSE, the “Biodistribution: Kidney” value is 0.639 % INJECTED DOSE, the “Biodistribution: Large Intestine” value is recorded as 0.156 % INJECTED DOSE and the “Biodistribution: Liver” value came to 0.570 % INJECTED DOSE. For the same compound, in data set [6], the “Biodistribution: Lung” value came out at 0.047 % INJECTED DOSE, the “Biodistribution: Small Intestine” value was 1.426 % INJECTED DOSE, the “Biodistribution: Spleen” value is recorded as 0.068 % INJECTED DOSE and the “Biodistribution: Stomach” value was 0.036 % INJECTED DOSE. In data set [6], the “Biodistribution: Blood” value is recorded as 0.437 % INJECTED DOSE, the “Biodistribution: Bone” value is listed as 1.495 % INJECTED DOSE, the “Biodistribution: Muscle” value is on record as 0.833 % INJECTED DOSE and the “Ratio Bone/Blood” value is on record as 3. Also, in data set [6], the “Ratio Bone/Liver” value stood at 3, the “Ratio Bone/Muscle” value is listed as 2 and the “Ratio Bone/Spleen” value worked out at 22.

(Values after patent publication US5385893A, “Tricyclopolyazamacrocyclophosphonic acids, complexes and derivatives thereof, for use as contrast agents” (The Dow Chemical Company, priority 1993, dated 1995).)
